Reference: ChEMBL document CHEMBL1134891, “Design and synthesis of conformationally restricted eight-Membered ring diketones as potential serine protease inhibitors” (Bioorg Med Chem Lett, 2002)

Columns and labels:
[1] = target: Urokinase-type plasminogen activator (Homo sapiens) (UniProt P00749); test: Compound was tested for percentage inhibition of urokinase in enzyme rate assays; NI denotes no significant inhibition at 100 uM
[2] = target: Plasminogen (Homo sapiens) (UniProt P00747); test: Compound was tested for percentage inhibition of plasmin in enzyme rate assays; NI denotes no significant inhibition at 100 uM
Plasminogen (Homo sapiens), sequence (P00747 97-580 limits assumed): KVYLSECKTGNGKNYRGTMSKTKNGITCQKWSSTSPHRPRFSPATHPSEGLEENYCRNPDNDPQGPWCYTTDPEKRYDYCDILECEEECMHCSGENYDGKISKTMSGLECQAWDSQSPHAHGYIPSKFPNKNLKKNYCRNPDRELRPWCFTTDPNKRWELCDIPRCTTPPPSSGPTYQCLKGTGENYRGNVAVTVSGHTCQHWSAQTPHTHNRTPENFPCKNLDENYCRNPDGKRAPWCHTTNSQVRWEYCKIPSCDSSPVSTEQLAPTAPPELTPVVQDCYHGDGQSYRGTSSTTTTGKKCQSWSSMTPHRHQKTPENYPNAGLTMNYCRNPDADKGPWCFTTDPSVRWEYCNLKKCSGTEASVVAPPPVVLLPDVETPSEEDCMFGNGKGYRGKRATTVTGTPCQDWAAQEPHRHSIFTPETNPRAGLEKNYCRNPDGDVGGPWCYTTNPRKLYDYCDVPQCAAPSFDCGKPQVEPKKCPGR
Plasminogen (Homo sapiens), sequence (P00747 581-810 limits assumed): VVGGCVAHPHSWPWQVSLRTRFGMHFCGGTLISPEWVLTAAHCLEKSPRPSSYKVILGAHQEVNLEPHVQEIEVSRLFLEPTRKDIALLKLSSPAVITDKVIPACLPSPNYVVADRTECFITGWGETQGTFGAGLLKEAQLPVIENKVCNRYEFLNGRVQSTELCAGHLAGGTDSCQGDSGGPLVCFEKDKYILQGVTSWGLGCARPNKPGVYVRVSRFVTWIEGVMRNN

[3] = target: Urokinase-type plasminogen activator (Homo sapiens) (UniProt P00749); test: Compound was tested for percentage inhibition of urokinase in enzyme rate assays; conditions: concentration not given here
[4] = target: Plasminogen (Homo sapiens) (UniProt P00747); test: Compound was tested for percentage inhibition of plasmin in enzyme rate assays; conditions: concentration not given here

inhibition [1]	inhibition [2]	inhibition [3] [%]	inhibition [4] [%]	Compound
No inhibition	No inhibition			CC[C@]1(C)CC[C@]2(C)[C@H](C)CC[C@]3(CCC(=O)[C@H]32)C(=O)C1=O
		28	25	CC(=O)N[C@]1(C)CC[C@]2(C)[C@H](C)CC[C@]3(CCC(=O)[C@H]32)C(=O)C1=O
